Data set [1] in a line: Cytotoxicity against mouse L929 cells assessed as inhibition of cell proliferation by MTT assay. The class given is toxicity, cell-based.
Data set [2] relates to HepG2. As to the kind of experiment: Effect on cell morphology in human HepG2 cells assessed as cell shrinkage at 1.25 to 5 uM by DAPI staining based analysis. The class given is functional. To be noted: dose 1.25-5 µM.
The subject of data set [3] is HepG2. As to the kind of experiment: Potency index, ratio of PD IC50 to test compound IC50 for antiproliferative activity against human HepG2 cells assessed as inhibition of cell proliferation by MTT assay. In kind it is functional.
The test system of data set [4] is HepG2. The experiment in a line: Induction of apoptosis in human HepG2 cells assessed as decrease in caspase-3 expression level at 1.25 to 5 uM incubated for 12 hrs by Western blot analysis. In kind it is functional, cell-based. To be noted: dose 1.25-5 µM.
A further data set concerns PC-3. As to the kind of experiment: Antiproliferative activity against human PC-3 cells assessed as inhibition of cell proliferation by MTT assay. The class given is functional, cell-based. (Tetrazolium dyes change colour on reduction, which living cells bring about.)
In data set [5] the test system is HepG2. The experiment in a line: Induction of apoptosis in human HepG2 cells assessed as increase in Bax level at 1.25 to 5 uM incubated for 12 hrs by Western blot analysis. To be noted: dose 1.25-5 µM. In kind it is functional, cell-based. A general note: A western blot detects proteins with antibodies after separation by electrophoresis.
Data set [6] concerns the target E3 ubiquitin-protein ligase Mdm2 (Homo sapiens) (UniProt Q00987). As to the kind of experiment: Inhibition of MDM2 in human HepG2 cells assessed as decrease in MDM2 protein level at 1.25 to 5 uM incubated for 12 hrs by Western blot analysis. The class given is cell-based. To be noted: dose 1.25-5 µM.
The subject of data set [7] is HepG2. As to the kind of experiment: Induction of apoptosis in human HepG2 cells assessed as increase in cleaved PARP level at 1.25 to 5 uM incubated for 12 hrs by Western blot analysis. In kind it is functional, cell-based. The following applies: dose 1.25-5 µM.
Data set [8] concerns HepG2. As to the kind of experiment: Induction of apoptosis in human HepG2 cells assessed as decrease in Bcl-2 expression level at 1.25 to 5 uM incubated for 12 hrs by Western blot analysis. In kind it is functional, cell-based. To be noted: dose 1.25-5 µM.
Data set [9] concerns HepG2. As to the kind of experiment: Induction of apoptosis in human HepG2 cells assessed as increase in cleaved caspase-3 level at 1.25 to 5 uM incubated for 12 hrs by Western blot analysis. In kind it is functional, cell-based. The following applies: dose 1.25-5 µM.
Data set [10] relates to HepG2. As to the kind of experiment: Antiproliferative activity against human HepG2 cells assessed as inhibition of cell proliferation by MTT assay. The class given is functional, cell-based.
The target in data set [11] is E3 ubiquitin-protein ligase Mdm2 (Homo sapiens) (UniProt Q00987). As to the kind of experiment: Inhibition of MDM2 in human HepG2 cells assessed as increase in p53 protein level at 1.25 to 5 uM incubated for 12 hrs by Western blot analysis. The class given is cell-based. To be noted: dose 1.25-5 µM.
Sequence of E3 ubiquitin-protein ligase Mdm2 (Homo sapiens) (Q00987 whole entry, looked up): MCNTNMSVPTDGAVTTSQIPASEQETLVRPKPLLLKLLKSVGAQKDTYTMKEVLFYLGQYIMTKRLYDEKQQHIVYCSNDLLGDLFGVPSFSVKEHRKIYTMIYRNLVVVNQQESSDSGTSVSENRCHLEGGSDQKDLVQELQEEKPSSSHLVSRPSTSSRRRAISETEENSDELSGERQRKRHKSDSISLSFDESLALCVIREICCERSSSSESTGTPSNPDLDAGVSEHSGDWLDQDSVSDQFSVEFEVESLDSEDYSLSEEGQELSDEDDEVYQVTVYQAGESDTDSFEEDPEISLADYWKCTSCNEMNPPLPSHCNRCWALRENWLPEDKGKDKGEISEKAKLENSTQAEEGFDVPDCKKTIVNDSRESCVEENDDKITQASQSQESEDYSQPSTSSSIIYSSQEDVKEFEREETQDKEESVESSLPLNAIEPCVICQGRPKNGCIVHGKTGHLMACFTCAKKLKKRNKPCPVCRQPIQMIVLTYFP
Data set [12] has as its system HepG2. As to the kind of experiment: Induction of apoptosis in human HepG2 cells at 1.25 to 5 uM by DAPI staining based analysis. The class given is functional, cell-based. To be noted: dose 1.25-5 µM.
The next data set has as its system A549. The experiment in a line: Antiproliferative activity against human A549 cells assessed as inhibition of cell proliferation by MTT assay. The class given is functional, cell-based.
Data set [13] concerns HepG2. The experiment in a line: Antiproliferative activity against human HepG2 cells assessed as inhibition of cell growth. The class given is functional, cell-based.

Calls of active or inactive are those of the source. The calls are words filed in the database; no cut-off is given here.

2 compounds from ChEMBL document CHEMBL5236586, “Novel ginsenoside derivatives induce apoptosis in HepG-2 cells via the MDM2-p53 signaling pathway” (Bioorg Med Chem Lett, 2022) can be followed below.

As usually defined, the IC50 is the midpoint of a concentration-inhibition curve. Take `CC(C)c1ccc(-c2nc(SCC(=O)O[C@H]3CC[C@@]4(C)[C@@H](CC[C@]5(C)[C@H]4C[C@@H](O)[C@@H]4C([C@@]6(C)CCCC(C)(C)O6)CC[C@]45C)C3(C)C)[nH]c(=O)c2C#N)cc1` (stereo not given in full): the IC50 in [1] was 58.8 µM; in the data set on PC-3, 7.04 µM; with HepG2 [10] it was 2.13 µM; in the data set on A549, 6.98 µM. The result (in the data set on HepG2 [2]; with HepG2 [4]; in the data set with HepG2 [5]; in data set [6]; in the data set with HepG2 [7]; in the data set with HepG2 [8]) was Active. Moreover, the result (with HepG2 [9]; in data set [11]; with HepG2 [12]) was Active. In the data set with HepG2 [3], the “Ratio IC50” value worked out at 28.
Regarding `N#Cc1c(-c2cn(-c3ccccc3)nc2-c2cc3ccccc3o2)[nH]c(NN)nc1=O`, the IC50 with HepG2 [13] amounted to 12.5 µM.
